Molecules are shown by their SMILES.

Data set [1] concerns BMP-7-induced HO model mice (C57BL/6). The data set can be described thus: BMP-7-induced HO model mice. The source says:
MTOR s604 […]tt […]at […]
For X- ray images, mice were anesthetized with isoflurane (5% for induction, 2-3% for maintenance, Abbvie), immobilized and X-rayed using µFX-1000 (Fujifilm) or DX-50 (Faxitron Bioptics). µCT images were scanned using X-ray CT systems (inspeXio SMX-100CT, Shimadzu) and analyzed with TRI/3D-BON software (Ratoc System Engineering) according to the manufacturer's instructions. Four weeks after injection, the injected sites were harvested, fixed with 4% paraformaldehyde for 24 h, embedded in paraffin, and sectioned and stained […]
BMP-7-induced HO model mice. BMP -7 (2 µ g/mouse) was injected into the right gastrocnemius muscle of C57BL/6NJcl mice (6-8 weeks, male, CLEA Japan), and compounds were administered once a day, five times a week (intraperitoneal administration). Mice were analyzed 2 weeks after injection. […]

Data set [2] concerns TGF-β signaling (CAGA-Luc). Nature of the data set: CAGA-Luc reporter assay in FOP-iMSCs. The data set is classed as cell-based, human. The settings on record: activin A and compounds for 3 hr. Here is the method: FOP-iMSCs transiently transfected with BRE-Luc (A) or CAGA-Luc (B) with CMV-Renilla were stimulated with activin A and compounds for 16 hr (A) or 3 hr (B). […] One day after siRNA transfection, chondrogenic induction with activin A was initiated, and after 7 days the cells were harvested. […] FOP-iMSCs cultured with 10% FBS were treated with 100 nM rapamycin (Rapa) or TAK 165 (TAK) for 2 hr, and the cells were harvested. […] 1 μM TAK, 1 μM CP (CP-724714, another selective ERBB2 inhibitor), or 10 nM Rapa were applied in the experiments.

For the next data set, the system named is FOP-iMSCs. The settings on record: TGF-β3 10 ng/mL, 7 days, 1 nM-1 µM. The source says: (§1) Generation of ATDC5 stably expressing ACVR1. WT - or FOP-ACVR1 was inserted into doxycycline (Dox)- inducible vector KW111 (Woltjen et al., 2009), which enables us to easily produce stably expressing cell lines utilizing the piggyBac (PB) transposon system from the cabbage looper moth Trichoplusia ni (Ding et al., 2005) (KW111/WT-ACVR1 or KW111/FOP-ACVR1). KW111/WT-ACVR1 or KW111/FOP-ACVR1 and PBaseII plasmid (PB transposase expression vector) ( Matsui et al., 2014 ) were co-transfected into ATDC5 cells by FuGeneHD® (Promega) according to the manufacturer’s protocol, and the neomycin- resistant population (500 µg/mL) was selected. Further selection was performed by selecting a mCherry high positive population (< 5%) after six hours of Dox treatment, sorting it with fluorescent-activated cell sorting (FACS) using AriaII (BD) according to the manufacturer’s protocol, and designating it as ATDC5/WT-ACVR1 or ATDC5/FOP-ACVR1. […]
(§2) HTS campaign and follow-up screens. […] After 3 days incubation, Alkaline Phosphatase activity (ALP) or AlamarBlue activity was measured using Amplite™ Colorimetric Alkaline Phosphatase Assay Kit (AAT Bioquest) or alamarBlue® Cell Viability Reagent (Thermo Fisher Scientific) according to the manufacturer’s protocol, respectively. T h e absorbance at 400 nm (Abs for ALP) or Relative Fluorescent Unit of Ex560/Em590 nm (RFU for AlamarBlue) was measured on POWERSCAN4 (DS Pharma Biomedical) or EnVision® Multilabel Reader (PerkinElmer).
(§3) Inhibitory effects of the screened compounds are given as percent inhibition, which was calculated using the following equation: (1-([Abs of compound] - [Abs of Min])/([Abs of Max] - [Abs of Min]))× 100, where [Abs of Max] and [Abs of Min] are the mean Abs of DMSO control and 1 µM DMH-1, respectively. The Z’ factor, which is widely used as a measure of the assay quality of each plate, was calculated using the following equation: Z’ factor = 1 - 3 × ([SD of Max] + [SD of Min])/([Abs of Max] - [Abs of Min]) (SI Appendix, Fig. […]

For another data set, the system named is resFOP-iMSCs.
Source text: as §1, §2, §3

Data set [3] relates to healthy control iPSC (414C2)-derived iMSCs. Nature of the data set: Wound healing assay.

For `FC(F)(F)c1ccc(/C=C/c2nc(COc3ccc(CCCCn4ccnn4)cc3)co2)cc1` [TAK 165, mubritinib], in data set [1] (i.p. for 2 weeks, n=5), the “body weight change compared to vehicle group” value is given as “No significant differences”. For the same compound, in data set [1] (i.p. once daily 5 times a week for 2 weeks), the “BMP-7-induced HO (heterotopic bone volume)” value is given as “suppressed”. Also, in data set [1] (i.p. once daily 5 times a week for 2 weeks, N = 5), the “# of HO (> 20 mm3): number of mice harboring HO” value was 1/5. In data set [2], the “CAGA-Luc (TGF-β-responsive luciferase reporter)” value is recorded as “did not affect”. For the same compound, the “chondrogenesis of FOP-iMSCs stimulated with TGF-β3 (GAG)” value in the data set with FOP-iMSCs was “suppressed”. Moreover, the “chondrogenesis of resFOP-iMSCs stimulated with Activin-A (GAG)” value in the data set with resFOP-iMSCs (Activin-A 100 ng/mL, 7 days, 1 nM-1 µM) is on record as “suppressed”. Also, the “effect on FOP cells versus normal cells” value with resFOP-iMSCs (FOP-iMSCs vs resFOP-iMSCs) is given as “stronger effects on FOP cells than on normal cells”. The “Relative cell migration (wound healing assay) vs DMSO” value in data set [3] (10 nM rapamycin or 1 µM TAK165, 24 h) is given as “n.s”. Besides, the “wound healing in vitro” value in data set [3] (1 µM, 24 h) is reported as “did not impair”.

The values above are taken from article PMC6235670, “An mTOR Signaling Modulator Suppressed Heterotopic Ossification of Fibrodysplasia Ossificans Progressiva” (Stem Cell Reports, 2018).
